Patent publication US20230227838A1, “ENHANCED CELL SURVIVAL AGAINST BIOTIC AND ABIOTIC STRESSES THROUGH SALICYLICK ACID-INDUCED NPR1 CONDENSATES” (priority 2020, published 2023)
Residue numbers refer to the chain shown, from its start.

B1: sim3: SUMOylation-deficient mutant of NPR1 (protein)
chain: MDTTIDGFADSYEISSTSFVATDNTDSSIVYLAAEQVLTGPDVSALQLLSNSFESVFDSPDDFYSDAKLVLSDGREVSFHRCVLSARSSFFKSALAAAKKEKDSNNTAAVKLELKEIAKDYEVGFDSVVTVLAYVYSSRVRPPPKGVSECADENCCHVACRPAVDFMLEVLYLAFIFKIPELITLYQRHLLDVVDKVVIEDTLVILKLANICGKACMKLLDRCKEIIVKSNVDMVSLEKSLPEELVKEIIDRRKELGLEVPKVKKHVSNVHKALDSDDIELVKLLLKEDHTNLDDACALHFAVAYCNVKTATDLLKLDLADVNHRNPRGYTVLHVAAMRKEPQLAASALEKGASASEATLEGRTALMIAKQATMAVECNNIPEQCKHSLKGRLCVEILEQEDKREQIPRDVPPSFAVAADELKMTLLDLENRVALAQRLFPTEAQAAMEIAEMKGTCEFIVTSLEPDRLTGTKRTSPGVKIAPFRILEEHQSRLKALSKTVELGKRFFPRCSAVLDQIMNCEDLTQLACGEDDTAEKRLQKKQRYMEIQETLKKAFSEDNLELGNSSLTDSTSSTSKSTGGKRSNRKLSHRRR
modifications: left off: small tags and cut ends
notes: SUMOylation-deficient mutant of NPR1
B2: S55/59D: phosphomimic mutant of NPR1 at S55/59 (protein)
chain: B1 chain with S55D, S59D, A345I, A346L, A348L
modifications: left off: small tags and cut ends

Assays:
FLAG-WRKY70 = assay: NPR1-CRL3 ubiquitination cascade reconstituted in E. coli; assay type: biochemical, Arabidopsis thaliana; settings: 1 mM sodium salicylate
CUL3 = assay: BiFC assay of interaction with CUL3; assay type: cell-based, Arabidopsis thaliana; settings: 1 mM SA for 5 hr
From the text: Plasmid construction and E. coli-based ubiquitination: The coding sequences for all Arabidopsis genes were amplified from cDNA. Point mutations of AtNPR1 (AT1G64280) were generated using the QuikChange II site-directed mutagenesis kit (Agilent). Overlap PCR was used to generate the deletion/truncation mutations of AtCUL3A (AT1G26830) and AtNPR1. The WT and mutated coding sequences for all genes and gene fusions were sub-cloned into the pDONR207 gateway donor vector and confirmed by sequencing. The obtained entry vectors were recombined into either plant or E. coli destination vectors without or with an N- or C-terminal tag. For in planta expression, genes were recombined into the plant binary vectors pK7FWG2, pSITE-4NB and pLN462 to generate C-terminal eGFP, mCherry and HA fusions, respectively; into pK7WGF2, pEG201, pEG202, pEG203 and pEG204 to generate N-terminal eGFP, HA, FLAG, Myc and V5 fusions, respectively. For co-expression of NPR1 and CUL3 in E. coli, NPR1 or its mutant/truncation variants were first recombined into pDEST15 vector to generate N-terminal GST fusions (GST-NPR1). Next, E. coli-codon-optimized coding sequence of AtCUL3A fused to the Myc tag was amplified from pEG203-CUL3 and inserted between NdeI and XhoI in the MCS-II of pCDFDuet-1 to generate pCDFDuet-1:Myc-CUL3 plasmid. The two plasmids, pDEST15-NPR1 and pCDFDuet-1:Myc-CUL3, were co-transformed into the E. coli strain BL21(DE3) and protein expression was induced with 0.25 mM IPTG for 12 hr at 20° C. For co-expression of NPR1 and EDS1 in E. coli, the coding sequence of AtEDS1 (AT3G48090) fused to FLAG tag was inserted between NcoI and NotI in MCS-I of pETDuet-1 to first generate the pETDuet-1:FLAG-EDS1 plasmid. […] For bimolecular fluorescence complementation (BiFC), entry vectors carrying the coding sequences of genes and their mutant variants were recombined into the pSITE-cEYFP-N1 binary vector for C-terminal fusion with the cYFP half (YC), or into the pSITE-nEYFP-C1 for N-terminal fusion with the nYFP half (YN). […]

NPR1-GFP = target: T1, NPR1-GFP (Arabidopsis thaliana, UniProt P93002); assay: Localization of NPR1-GFP and sim3-GFP, transient expression in Arabidopsis seedlings; assay type: cell-based; settings: for nuclear-cytoplasmic partitioning of NPR1-GFP: 2 hr
T1 construct: expressed in transfected cells; host or cells: Arabidopsis Col-0 seedlings, Agrobacterium-mediated transient expression
T1 sequence (P93002 1-593): B1 chain with A345I, A346L, A348L

| Molecule | ubiquitination of WRKY70 in reconstituted NPR1-CRL3 cascade (FLAG-WRKY70) | BiFC signal of interaction with CUL3 (CUL3) | nuclear-cytoplasmic partitioning of NPR1-GFP (NPR1-GFP; 1 mM SA) | nuclear-cytoplasmic partitioning of NPR1-GFP (NPR1-GFP; 5 mM SA) | formation of NPR1-GFP bodies in nucleus and cytoplasm (NPR1-GFP; SA treatment 2 hr) | subcellular localization (NPR1-GFP; after SA treatment) | cytoplasmic body formation (NPR1-GFP; lower SA concentration (1 mM), Arabidopsis seedlings) |
| --- | --- | --- | --- | --- | --- | --- | --- |
| NPR1: wild-type Arabidopsis thaliana NPR1 protein, positive regulator of systemic acquired resistance | could mediate ubiquitination of WRKY70 | clear interactions with CUL3 in discrete cytoplasmic condensates | – | – | – | – | – |
| O=C(O)c1ccccc1O [SA, salicylic acid] | – | – | predominant nuclear accumulation of NPR1-GFP | fluorescence was detected also in the cytoplasm | induced formation of discrete NPR1-GFP bodies | – | – |
| B1 | could mediate ubiquitination of WRKY70 | more intense | – | – | – | predominant cytoplasmic localization | cytoplasmic bodies were also observed at the lower SA concentration |
| B2 | – | significantly weaker BiFC signal | – | – | – | – | – |
